Data set [1] can be described thus: Acute toxicity in mice. As to conditions: in vivo, po; mouse, esophageal tube, 1% methyl cellulose; deaths within 14 days; LITCHFIELD and WILCOXON
The class given is in vivo. As for the experimental part: (§1) were tested with regard to analgesic activity in the rat, analgesic activity in the mouse, and acute toxicity in the mouse:
(§2) 3. Acute Toxicity in Mice
(§3) The acute toxicity was determined in Chbb:NMRI (SPF)-mice of both sexes, having an average body weight of 20 grams. The test compounds were administered as a trituration in 1% methyl cellulose (0.2 ml/10 gm of animal) by means of an esophageal tube. The calculation of the LD50 values was effected according to the method of LITCHFIELD and WILCOXON [J. Pharmacol. Exp. Ther., 96, 99 (1949)], based upon the percentage of animals which died within 14 days after administration of different doses.

In data set [2] the test system is Pain of Inflammation on the Back Paw of the Rat. The data set is described as follows: Activity against the pain of inflammation on the back paw of the rat (RANDALL-SELITTO). The class given is in vivo, rat (male Chbb:THOM-rats). As to conditions: po, 1.5 h, dose at which pain threshold rises by 50% vs controls, esophageal tube, 1% methyl cellulose, 90 minutes after phlogistic, 90 minutes before determination, linear regression. On the procedure: as §1
1. Activity against the Pain of Inflammation on the Back Paw of the Rat
The activity against the pain caused by inflammation was tested according to the method of RANDALL-SELITTO [Arch. Int. Pharmacodyn., 111, 409 (1957)]. Male Chbb:THOM-rats having body weights of from 100 to 130 grams received a subplantar injection of 0.1 ml of a suspension of 1,12 g of dry yeast in 18.9 ml of a 5.5% glucose solution into a back paw.
At 90 minutes after injection of the phlogistic, that is, ninety minutes before determination of the pain threshold, the animals received various doses of the test substances as a trituration in 1% methyl cellulose (1 ml/100 gm of animal) through an esophageal tube. Control animals received corresponding volumes of the vehicle. The pain threshold was determined in the rat in terms of the grams of bearing pressure on a paw, based on the weight of the animal.
From the pain threshold, measured according to the various doses of the test substance, and with linear regression analysis according to LINDER [Statistische Methoden, 4th ed., pp. 148-162, Birkhauser, Basel, 1964] an ED50 was determined. The ED50 dose is one in which the pain threshold rises by 50%, as compared to the controls.

Data set [3] has as its system Sensitivity of the Mouse in the Hot Plate Test. Kind of data set: Activity against the sensitivity of the mouse in the hot plate test (CHEN and BECKMAN). Type of data set: in vivo, mouse (male Chbb:NMRI (SPF)-mice). As to conditions: po, dose increasing time of reaction by 100%, hot plate 52° C., esophageal tube, 1% methyl cellulose, linear regression. On the procedure: as §1
2. Activity against the Sensitivity of the Mouse in the Hot Plate Test
The test was performed according to the method described by CHEN and BECKMAN [Science, 113, 631 (1951)] in male Chbb:NMRI (SPF)-mice with an average weight of 20 grams.
The test substances were administered as trituration in 1% methyl cellulose (0.1 ml/10 gm of mouse) by means of an esophageal tube. Before treatment with the test substances, the animals were twice put on the hot plate at intervals of 30 to 120 minutes, whereby their individual times of reaction were measured. After treatment with a test substance, the times of reaction of the animals were again measured in intervals of 30 to 120 minutes.
From the average maximum increase of the time of reaction obtained after treatment with different doses, and after linear regression analysis according to LINDER, an ED100 dose was calculated. The ED100 dose is one which increased the time of reaction by 100%.
(In general: In hot-plate and tail-flick tests a longer latency is read as antinociception.)

In data set [4] the test system is Chbb:NMRI (SPF)-mice. The data set is described as follows: Acute toxicity in mice. The class given is in vivo. As to conditions: dose 1000 mg/kg (footnote * of Table 3), mouse, esophageal tube, within 14 days. As for the experimental part:
as §1, §2, §3

SMILES strings stand for the structures. Bounds are passed on as bounds.

Consider `Cc1nn(C)c2c1Nc1ncccc1NC2=O` [A, 1,3-dimethyl-1,4,9,10-tetrahydro-pyrazolo[4,3-e]pyrido[3,2-b][1,4]diazepin-10-one], for which the LD50 (commonly the dose expected to kill half of the subjects tested) at 336 h in data set [1] worked out at 152 mg/kg. The ED50 (in general, the midpoint of the dose-response relation) in data set [2] worked out at 26 mg/kg. This compound yielded an ED100 in data set [3] of 15 mg/kg.

The compound `Cc1nn(C)c2c1Nc1ncccc1N(C)C2=O` [B, 1,4,9,10-tetrahydro-1,3,9-trimethyl-pyrazolo[4,3-e]pyrido[3,2-b][1,4]diazepin-10-one] showed an LD50 at 336 h in data set [1] of 175 mg/kg. In addition, in data set [2], the ED50 turned out to be 11 mg/kg. For the same compound, the ED100 in data set [3] amounted to 30 mg/kg.

`CCN1C(=O)c2c(c(C)nn2C)Nc2ncccc21` [C, 1,3-dimethyl-9-ethyl-1,4,9,10-tetrahydro-pyrazolo[4,3-e]pyrido[3,2-b][1,4]diazepin-10-one]: the LD50 at 336 h in data set [1] was determined as 171 mg/kg. This compound came in with an ED50 in data set [2] of 28 mg/kg. Also, the ED100 in data set [3] came to 28 mg/kg.

As to `Cc1nn(C)c2c1N(C)c1ncccc1N(C)C2=O` [D, 1,4,9,10-tetrahydro-1,3,4,9-tetramethyl-pyrazolo[4,3-e]pyrido[3,2-b][1,4]diazepin-10-one], the LD50 at 336 h in data set [1] was 225 mg/kg. Also, it took a dose of 7.4 mg/kg to reach the 50% effect level in data set [2] (ED50).

The compound `CCN1C(=O)c2c(c(C)nn2C)N(C)c2ncccc21` [E, 9-ethyl-1,4,9,10-tetrahydro-1,3,4-trimethyl-pyrazolo[4,3-e]pyrido[3,2-b][1,4]diazepin-10-one] yielded an LD50 at 336 h in data set [1] of 202 mg/kg. In addition, in data set [2], the ED50 was found to be 5.9 mg/kg.

`CCCCN1C(=O)c2c(c(C)nn2C)Nc2ncccc21` [F, 9-(n-butyl)-1,3-dimethyl-1,4,9,10-tetrahydro-pyrazolo[4,3-e]pyrido[3,2-b][1,4]diazepin-10-one] yielded an LD50 at 336 h in data set [1] of more than 1000 mg/kg. Further, in data set [4], the “animals died after administration of this dose” value is on record as 1 out of 8. Further, the ED50 in data set [2] stood at 139 mg/kg. Moreover, the ED100 in data set [3] amounted to 87 mg/kg.

These data come from patent US4381303A, “1,4,9,10-Tetrahydro-pyrazolo [4,3-]pyrido[-3,2-b][1,4]diazepin-10-ones” (Dr. Karl Thomae GmbH, priority 1981, dated 1983).
